According to PubChem BioAssay (NCI):
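In this assay, cells in 96-well plates receive the compound at five concentrations for 48 hours. Endpoints are linearly interpolated between the surrounding concentrations. TGI marks complete inhibition of growth.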

How the values were obtained:
Assay in all cases: inhibition of tumour cell growth, NCI panel, 48 h
M14 melanoma = test system: M14 melanoma
MCF7 breast = test system: MCF7 breast
U251 CNS = test system: U251 CNS
SR leukemia = test system: SR leukemia
SK-MEL-2 melanoma = test system: SK-MEL-2 melanoma
RPMI-8226 leukemia = test system: RPMI-8226 leukemia
HCT-15 colon = test system: HCT-15 colon
NCI-H522 lung = test system: NCI-H522 lung
CAKI-1 renal = test system: CAKI-1 renal
EKVX NSCLC = test system: EKVX NSCLC
UO-31 renal = test system: UO-31 renal
HS 578T breast = test system: HS 578T breast
IGROV1 ovarian = test system: IGROV1 ovarian
T-47D breast = test system: T-47D breast
OVCAR-5 ovarian = test system: OVCAR-5 ovarian
OVCAR-8 ovarian = test system: OVCAR-8 ovarian
PC-3 prostate = test system: PC-3 prostate
A498 renal = test system: A498 renal
HOP-62 NSCLC = test system: HOP-62 NSCLC
SF-539 CNS = test system: SF-539 CNS
HCC-2998 colon = test system: HCC-2998 colon
DU-145 prostate = test system: DU-145 prostate
NCI-H460 lung = test system: NCI-H460 lung
K-562 leukemia = test system: K-562 leukemia
NCI-H23 lung = test system: NCI-H23 lung
MDA-N = test system: MDA-N
SNB-19 CNS = test system: SNB-19 CNS
UACC-257 melanoma = test system: UACC-257 melanoma
MOLT-4 leukemia = test system: MOLT-4 leukemia
A549 NSCLC = test system: A549 NSCLC
MDA-MB-435 = test system: MDA-MB-435
ACHN renal = test system: ACHN renal
LOX IMVI melanoma = test system: LOX IMVI melanoma
SF-295 CNS = test system: SF-295 CNS
SW-620 colon = test system: SW-620 colon
SNB-75 CNS = test system: SNB-75 CNS
MALME-3M melanoma = test system: MALME-3M melanoma
HCT-116 colon = test system: HCT-116 colon
HL-60(TB) leukemia = test system: HL-60(TB) leukemia
MDA-MB-231 breast = test system: MDA-MB-231 breast
SK-MEL-5 melanoma = test system: SK-MEL-5 melanoma
HOP-92 NSCLC = test system: HOP-92 NSCLC
CCRF-CEM leukemia = test system: CCRF-CEM leukemia
SK-MEL-28 melanoma = test system: SK-MEL-28 melanoma
RXF 393 renal = test system: RXF 393 renal
OVCAR-3 ovarian = test system: OVCAR-3 ovarian
HT29 colon = test system: HT29 colon
SF-268 CNS = test system: SF-268 CNS
TK-10 renal = test system: TK-10 renal
SK-OV-3 ovarian = test system: SK-OV-3 ovarian
NCI/ADR-RES ovarian = test system: NCI/ADR-RES ovarian
OVCAR-4 ovarian = test system: OVCAR-4 ovarian
786-0 renal = test system: 786-0 renal
NCI-H226 lung = test system: NCI-H226 lung
COLO 205 colon = test system: COLO 205 colon
KM12 colon = test system: KM12 colon
SN12C renal = test system: SN12C renal

Measured: TGI

COC(=O)c1cc2c(c(C(=O)OC)c1)CCC2
86.8 µM: SR leukemia
not listed: NCI-H226 lung | COLO 205 colon | KM12 colon | SN12C renal
> 100 µM: all other assays above

CCOC(=O)C(NC(=O)c1cccc(Cl)c1)(Nc1ccc(S(=O)(=O)Nc2cc(C)on2)cc1)C(F)(F)F (centres undefined)
33.4 µM: SF-295 CNS
not listed: SR leukemia
> 100 µM: all other assays above
